Activity calls are given as the source filed them. How the calls were made is not given here.
Target: Ubiquitin carboxyl-terminal hydrolase 8 (Homo sapiens) (UniProt P40818)
Assay: Ubiquitin-specific protease 8 inhibitors, concentration-effect, biochemical, validation of initial actives (AID 1645862);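 further: potency reflects inhibition of USP8 cleavage of a ubiquitin rhodamine substrate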
Details: recombinant USP8 deubiquitinase activity assay

Ubiquitin carboxyl-terminal hydrolase 8 (Homo sapiens), sequence (P40818 whole entry, looked up): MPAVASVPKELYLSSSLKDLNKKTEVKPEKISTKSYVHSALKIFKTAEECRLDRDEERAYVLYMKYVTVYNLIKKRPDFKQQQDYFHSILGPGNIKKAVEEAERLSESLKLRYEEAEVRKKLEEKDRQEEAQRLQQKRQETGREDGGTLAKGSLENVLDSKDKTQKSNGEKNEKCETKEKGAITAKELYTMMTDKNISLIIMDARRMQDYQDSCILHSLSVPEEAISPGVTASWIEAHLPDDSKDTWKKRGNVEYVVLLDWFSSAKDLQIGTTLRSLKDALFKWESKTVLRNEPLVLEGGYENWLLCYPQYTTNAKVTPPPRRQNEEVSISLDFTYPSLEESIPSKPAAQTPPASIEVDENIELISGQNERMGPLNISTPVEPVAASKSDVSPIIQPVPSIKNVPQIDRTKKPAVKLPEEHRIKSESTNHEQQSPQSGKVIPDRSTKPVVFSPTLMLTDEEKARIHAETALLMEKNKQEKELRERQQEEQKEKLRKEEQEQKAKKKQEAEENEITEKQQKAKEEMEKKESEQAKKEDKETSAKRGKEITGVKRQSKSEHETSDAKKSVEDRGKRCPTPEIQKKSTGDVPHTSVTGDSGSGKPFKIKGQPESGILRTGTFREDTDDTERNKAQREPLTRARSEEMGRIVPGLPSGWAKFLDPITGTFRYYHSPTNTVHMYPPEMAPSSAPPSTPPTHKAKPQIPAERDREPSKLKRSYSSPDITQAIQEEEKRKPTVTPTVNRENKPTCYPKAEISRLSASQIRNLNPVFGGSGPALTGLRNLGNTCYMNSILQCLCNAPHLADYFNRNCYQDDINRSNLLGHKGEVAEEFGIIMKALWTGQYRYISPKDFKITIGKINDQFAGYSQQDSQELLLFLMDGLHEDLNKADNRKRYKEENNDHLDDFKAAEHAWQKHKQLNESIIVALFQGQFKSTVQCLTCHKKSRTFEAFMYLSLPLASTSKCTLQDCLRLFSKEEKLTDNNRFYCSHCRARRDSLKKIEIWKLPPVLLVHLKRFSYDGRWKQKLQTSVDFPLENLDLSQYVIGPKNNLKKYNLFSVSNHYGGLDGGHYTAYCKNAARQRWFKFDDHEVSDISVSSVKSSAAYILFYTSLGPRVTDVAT

Row | Compound | IC50
1 | Cc1cccc(OCCn2c(CCNC(=O)C3CCCCC3)nc3ccccc32)c1 | > 40 µM (inactive)
2 | Cn1c(SCC(=O)c2ccc(F)cc2)nnc1-c1cc2ccccc2o1 | > 40 µM (inactive)
3 | O=c1c2[nH]c3ccccc3c2ncn1CCC1=CCCCC1 | > 40 µM (inactive)
4 | CC(NC(=O)c1ccccc1)c1nc2ccccc2n1CC(=O)Nc1ccc(OC(F)(F)F)cc1 (stereo not drawn) | > 40 µM (inactive)
5 | O=C(CCCn1c(=O)c2cc(Cl)ccc2n(CC(=O)Nc2cccc(F)c2)c1=O)NCc1ccco1 | > 40 µM (inactive)
6 | O=S1(=O)CCN(Cc2cccnc2)c2c(F)nc(N3CCOCC3)c(F)c21 | > 40 µM (inactive)
7 | Cn1nc(C(=O)N2CCC(c3ccccc3)C2)c2c1-c1ccsc1CC2 (stereo not drawn) | 38.4 µM
8 | Cc1ccc(NC(=O)Cc2nnc3cc(-c4nc(C)no4)ccn23)cc1 | 21.3 µM
9 | COc1ccc(NS(=O)(=O)c2cc(NC(=O)/C=C/c3ccco3)ccc2N2CCCC2)cc1 | > 40 µM (inactive)
10 | CC(=O)c1ccc(NC(=O)CCc2c(C)c3c(C)nn(-c4ccccc4)c3n(C)c2=O)cc1 | > 40 µM (inactive)
11 | CS(=O)(=O)c1cccc(C(=O)Nc2sc3c(c2C(N)=O)CCCC3)c1 | > 40 µM (inactive)
12 | CN(C(=O)C1(c2ccccc2)CC1)c1nc2c(s1)CCc1occc1-2 | > 40 µM (inactive)
13 | COc1ccc2c(c1)c(CC(=O)Nc1ccc(N3CCOCC3)cc1)c(C)n2C(=O)c1ccc(Cl)cc1 | > 40 µM (inactive)
14 | Cc1sc2ccn(C)c(=O)c2c1C(=O)NC1CCCC1 | 2.18 µM
15 | CCOc1ccc(NS(=O)(=O)c2ccc(NC(=O)Nc3ccccc3)cc2)cc1 | > 40 µM (inactive)
16 | Cc1ccc2[nH]cc(S(=O)(=O)c3cc(F)cc(F)c3)c(=O)c2c1 | > 40 µM (inactive)
17 | O=C(Cn1c(COc2ccccc2)nc2ccccc21)Nc1cc(Cl)ccc1Cl | > 40 µM (inactive)
18 | Cc1csc(NC(=O)c2c[nH]c3ccc(F)cc3c2=O)n1 | > 40 µM (inactive)
19 | COc1ccc(-c2nc(SCC(=O)Oc3c(C)cccc3C)n3[nH]c(=O)cc3n2)cc1 | 18 µM
20 | O=C(Cn1c(CNC(=O)c2ccccc2)nc2ccccc21)Nc1ccc(F)cc1 | > 40 µM (inactive)
21 | COC(=O)c1ccc2c(=O)n(CCCCCC(=O)NCCc3ccccc3Cl)c(=O)[nH]c2c1 | > 40 µM (inactive)
22 | Cc1ccc(Nc2nc(O)c(CC(=O)Nc3cccc(Cl)c3C)s2)cc1C | > 40 µM (inactive)

Row | Compound | IC50
23 | O=S1(=O)CCN(CC2CCCO2)c2c(Oc3ccccc3)nc(F)c(Cl)c21 (stereo not drawn) | > 40 µM (inactive)
24 | Cc1ccc(Nc2nc(O)c(CC(=O)Nc3ccccc3C)s2)cc1C | > 40 µM (inactive)
25 | COc1ccc(Cl)cc1NC(=O)COC(=O)c1cc2ccccc2oc1=O | 24.2 µM
26 | COc1ccc(NC(=O)CC(=O)c2ccc([N+](=O)[O-])cc2)cc1S(=O)(=O)Nc1ccc(Br)cc1 | > 40 µM (inactive)
27 | Cc1cc(C)c2nc3c(cc2c1)CN(Cc1ccco1)C(=O)O3 | > 40 µM (inactive)
28 | O=c1[nH]c(C2CCN(S(=O)(=O)c3ccc(S(=O)(=O)NC4CCCCC4)cc3)CC2)nc2c1nnn2Cc1ccc(F)cc1 | > 40 µM (inactive)
29 | CN1CCc2c(C#N)c(N3CCOCC3)nc(NCC3CCCO3)c2C1 (stereo not drawn) | > 40 µM (inactive)
30 | CN1CC(c2ncn[nH]2)c2cc(C(=O)NCc3cccc(F)c3)ccc21 (stereo not drawn) | > 40 µM (inactive)
31 | CCn1c(CNC(=O)c2cccc(C)c2)nnc1SCC(=O)N1CCc2ccccc21 | > 40 µM (inactive)
32 | CSc1nc(NCc2ccccc2)c2sc3nc(N4CCOCC4)c4c(c3c2n1)CC(C)(C)OC4 | > 40 µM (inactive)
33 | CC(=O)Nc1ccc(S(=O)(=O)NCc2ccc(C(=O)NCCc3ccc(Cl)cc3)cc2)cc1 | > 40 µM (inactive)
34 | Cc1cccc(OCC2=NN3C(=N)/C(=C\c4cc(C)n(-c5cccc(F)c5)c4C)C(=O)N=C3S2)c1 | > 40 µM (inactive)
35 | O=C(COC(=O)c1ccc(NS(=O)(=O)c2ccc(F)c(F)c2)cc1)Nc1ccc(OCc2ccccc2)cc1 | > 40 µM (inactive)
36 | O=C(CNC(=O)c1ccc2nc(-n3cccc3)sc2c1)NCc1cccc(Cl)c1 | > 40 µM (inactive)
37 | COc1ccc(NC(=O)COc2cc(C)nc(-c3ccc(C)cc3)n2)c(OC)c1 | > 40 µM (inactive)
38 | COc1ccccc1N(CC(=O)N1c2ccccc2CC1C)S(=O)(=O)c1ccc(F)cc1 (stereo not drawn) | > 40 µM (inactive)
39 | O=C(CSc1nc2ccccc2[nH]1)Nc1ccc2c(c1)OCCO2 | > 40 µM (inactive)
40 | Cc1ccc(NC(=O)Cn2c(=O)n(CC(=O)NCCc3ccccc3)c(=O)c3sccc32)cc1C | > 40 µM (inactive)
41 | CC1OC2CC(O)C1(O)C1=C2C(O)=C(C(N)=O)C(=N)C1=O (stereo not drawn) | 1.56 µM
42 | Cc1cccc(N2C(=O)/C(=C\c3cc(C#N)n(C)c3C)c3ccccc3C2=O)c1 | > 40 µM (inactive)
43 | O=S1(=O)CCN(Cc2c(F)cccc2F)c2c(F)nc(N3CCOCC3)c(F)c21 | > 40 µM (inactive)
44 | O=C(COc1ccccc1-c1nnc(-c2ccccc2)o1)NCCc1ccco1 | 29.1 µM

Row | Compound | IC50
45 | O=C1c2ccccc2-c2nnc(-c3ccncc3)cc21 | 14 µM
46 | COc1ccc(-c2ccc3cc(C(=O)O)ccc3c2)cc1C12CC3CC(CC(C3)C1)C2 | 8.03 µM
47 | Cc1nc(SCC(=O)NC(C)c2ccccc2)c2oc3ccccc3c2n1 (stereo not drawn) | > 40 µM (inactive)
48 | COc1ccc(-c2noc([C@@H]3C[C@H](NC(=O)Nc4ccc(C)cc4)CN3C)n2)cc1 | > 40 µM (inactive)
49 | O=C(O)CCCCCN1C(=O)CC(c2ccc(Cl)cc2)CC1=O | 31.8 µM
50 | CC(C)CCCCCCCCCCC(=O)N(C)[C@H](CO)C(=O)N[C@H](C)C(=O)NCC(=O)N(C)C1C(=O)N[C@@H](C)C(=O)NC(C(=O)O)Cc2ccc(O)c(c2)-c2cc1ccc2O (stereo partly drawn) | > 40 µM (inactive)
51 | Cc1ccccc1Cn1c(=O)n(CC2CCC(C(=O)NC3CCCC3)CC2)c(=O)c2ccccc21 (stereo not drawn) | > 40 µM (inactive)
52 | CCOc1ccc(Oc2nc(CN3CCCC3)nc3sc(C)c(C)c23)cc1 | > 40 µM (inactive)
53 | N=C1/C(=C/c2cn(Cc3ccc(F)cc3)c3ccccc23)C(=O)N=C2SC(Cc3ccccc3)=NN12 | > 40 µM (inactive)
54 | COc1ccc(CNc2ccc(C(=O)OCc3ccccc3F)cc2S(=O)(=O)Nc2cccc(OC)c2)cc1 | > 40 µM (inactive)
55 | CC(=O)c1cc(-c2ccc(F)cc2)n(CC(=O)Nc2cccc(C)c2C)c1C | > 40 µM (inactive)
56 | O=C(NCc1ccc(F)cc1)c1cccc(Nc2nc3ccccc3n3cnnc23)c1 | > 40 µM (inactive)
57 | O=c1[nH]c(C2CCN(S(=O)(=O)c3ccc(S(=O)(=O)NC4CCCC4)cc3)CC2)nc2c1nnn2Cc1cccc(Cl)c1 | > 40 µM (inactive)
58 | O=C(Nc1ccccc1-c1nc2ccccc2[nH]1)c1sc2ccccc2c1Cl | 10.5 µM
59 | O=C(c1cnc2[nH][nH]c(=O)c2c1)c1cc(Cl)cc(Cl)c1O | 10.7 µM
60 | COc1cccc(CNc2ccc(-c3nc(-c4ccccc4)no3)nn2)c1 | > 40 µM (inactive)
61 | CC1=C(Cn2c3cccc(=O)c-3nc3ccccc32)CCC(C)(C)C1 | 1.71 µM
62 | Cc1cc(OCC(=O)Nc2ccccc2C(=O)Nc2ccccc2)ccc1Cl | > 40 µM (inactive)
63 | CCCCCCCc1cc(OC(=O)c2c(CCCCCCC)cc(O)cc2O[C@@H]2O[C@H](CO)[C@H](O)[C@H](O)[C@H]2O)cc(O)c1C(=O)O | 9.43 µM
64 | Cc1cc(NS(=O)(=O)c2ccc(NC(=O)COc3ccc(Cl)cc3)cc2)no1 | > 40 µM (inactive)
65 | O=C(c1cc(Cl)c(Cl)[nH]1)c1cc(Cl)cc(Cl)c1O | > 40 µM (inactive)
66 | O=c1[nH]c(C2CCN(S(=O)(=O)c3ccc(S(=O)(=O)NC4CC4)cc3)CC2)nc2c1nnn2Cc1c(Cl)cccc1Cl | > 40 µM (inactive)

Row | Compound | IC50
67 | CCn1cc2c(n1)c(=O)n(Cc1ccccc1)c(=O)n2CC(=O)NCc1ccc(C)cc1 | > 40 µM (inactive)
68 | CC[C@H](C)[C@H](NC(=O)[C@H]([C@@H](C)CC)N(C)C(C)=O)C(=O)N[C@H](C(=O)N[C@@H](CC(C)C)C(=O)C1(C)CO1)[C@@H](C)O (stereo partly drawn) | > 40 µM (inactive)
69 | O=C(Nc1ccncc1)c1cn(Cc2ccccc2)cc2c(=O)n(-c3ccccc3)nc1-2 | > 40 µM (inactive)
70 | O=C1Cc2ccccc2C(=O)N1Cc1cccc(Cl)c1 | 4.12 µM
71 | CCN(c1ccc(NC(=O)COC(=O)c2cccnc2Nc2cccc(C(F)(F)F)c2)cc1)C(C)C | > 40 µM (inactive)
72 | COc1ccc(NC(=O)[C@H](C)NC(=O)c2cc3c(OC)cccc3[nH]2)cc1Cl | > 40 µM (inactive)
73 | CCCN1CCN(C(=O)Cn2c(C)ccc(NC(=O)c3ccccc3)c2=O)CC1 | > 40 µM (inactive)
74 | COc1ccc(Nc2nnc(Cc3ccc(Cl)cc3)c(=O)[nH]2)cc1 | 29.2 µM
75 | CCOC(=O)CCc1c(C)c2ccc(OCC(=O)c3ccc(-c4ccccc4)cc3)c(C)c2oc1=O | > 40 µM (inactive)
76 | O=C(Cn1c(=O)n(Cc2ccccc2)c(=O)c2ncccc21)NCc1ccccc1Cl | > 40 µM (inactive)
77 | COc1cc(/C=C/C(=O)OCC(=O)Nc2ccc([N+](=O)[O-])cc2OC)ccc1O | 26.3 µM
78 | CCCCCCCC1OC(=O)Cc2cc(O)c(O)c(O)c21 (stereo not drawn) | 8.62 µM
79 | O=C(CCc1ccc(S(=O)(=O)N2CCOCC2)cc1)OCC(=O)c1ccc(-c2ccccc2)cc1 | > 40 µM (inactive)
80 | COc1ccccc1N1CCN(C(=O)c2ccc3c(=O)n(CCc4ccccc4)c(=O)[nH]c3c2)CC1 | > 40 µM (inactive)
81 | O=C(c1ccco1)N1CCCC1c1nc(-c2ccccc2)n[nH]1 (stereo not drawn) | > 40 µM (inactive)
82 | COC(=O)c1ccccc1NC(=O)Cn1c(=O)n(CCCC(=O)NCc2ccco2)c(=O)c2ccccc21 | > 40 µM (inactive)
83 | NS(=O)(=O)c1ccc(CNS(=O)(=O)/C=C/c2ccccc2)cc1 | > 40 µM (inactive)
84 | CSc1cccc(NC(=O)c2cc(-c3cccnc3)n[nH]2)c1 | > 40 µM (inactive)
85 | COc1ccc([C@H]2Oc3cc(OC)cc(O)c3C(=O)[C@@H]2[C@@H]2C(=O)c3c(O)cc(O)cc3O[C@H]2c2ccc(OC)cc2)cc1 | > 40 µM (inactive)
86 | CCN(Cc1ccccc1)C(=O)Cn1ccc2ccn(C)c2c1=O | > 40 µM (inactive)
87 | Cc1cc(NC(=O)CSc2ncc(-c3cccc([N+](=O)[O-])c3)n2-c2cccc(Cl)c2)no1 | > 40 µM (inactive)
88 | CC(C)=CCc1c2c(c3occ(-c4ccc(O)cc4)c(=O)c3c1O)C=CC(C)(C)O2 | > 40 µM (inactive)
